For this data set, the system named is B16 melanoma. Kind of data set: Treating melanoma-bearing mice with drug-loaded crosslinked nanoparticles. It is filed as in vivo, C57BL/6 black mice. As for the experimental part:
C57BL/6 black mice with body weight of about 18˜20 g, aged 4˜6 weeks were used in the experiment. The mice were weighed and equally grouped based on body weight, then 1×10^6 B16 melanoma cells were subcutaneously injected. After one week, when the size of the tumors was 30˜50 mm^3, the drug-loaded nanoparticles and free DOX were injected into the mice through tail veins at Day 0, 2, 4, 6, and 8, where the amount of DOX in drug-carrying nanoparticles was 10, 20, 30 mg/kg, […] From Day 0 to 15, the body weight of the mice in each group was weighed every day. The size of the tumor was precisely measured with Vernier scale, where the method for calculating the volume of tumors was: V=(L×W×H)/2, (where L was the length of the tumor, W was the width of the tumor, H was the thickness of the tumor). The survival of the mice was observed continuously till the 46th day.
FIG. 11 is a curve graph showing that the doxorubicin-loaded polymer PEG5k-b-PCDC2.8k crosslinked nanoparticles inhibit tumor growth on melanoma-bearing mice; FIG. 12 is a curve graph showing the change of body weight of the mice. FIG. 13 is a curve graph showing the survival of the mice.

One molecule from US9796728B2, “Cyclic carbonate monomer containing double-sulfur five-membered ring functional group, and preparation method thereof” (BrightGene Bio-Medical Technology Co., Ltd., priority 2014, dated 2017) can be followed below.

Structures are written as SMILES.

Molecule `COc1cccc2c1C(=O)c1c(O)c3c(c(O)c1C2=O)C[C@@](O)(C(=O)CO)C[C@@H]3O[C@H]1C[C@H](N)[C@H](O)[C@H](C)O1` [free DOX, doxorubicin] had a body weight decrease (DOX group, in 7 days) of 23%. Where the note is “DOX group, printed as 30 mg/kg”, the “day of treatment on which all mice died” value came to 10 days. Besides, the “toxic side effects on the mice” value (free DOX group) is “severe toxic side effect”.
